# Experimental data as given in patent US9188580B2, “Gene reporter assay, kit, and cells for determining the presence and/or the level of a molecule that activates signal transduction activity of a cell surface protein” (LE CENTRE NATIONALE DE LA RECHERCHE SCIENTIFIQUE, priority 2002, dated 2015).
# Tests used:
# PIL5 cells [1] = assay: Luciferase gene reporter assay for Type I interferon: IFN sensitivity of PIL5 cells treated with anti-mitotic agent, frozen and thawed; assay type: cell-based, human
# Method: • 1. Remove protective cover from the sample preparation micro-plate (Plate A). • 2. Add 100 μl of the diluent (RPMI 1640 medium without serum) to wells A1 through A6 and B1 through B6 of the sample preparation plate (Plate A). • 3. Add 100 μl of the interferon (IFN) reference preparation to wells A1 and B1 of Plate A containing 100 μl of diluent. • 4. Carry out serial two-fold dilutions of the IFN reference preparation in Plate A from wells A1 and B1 through wells A6 and B6 using a multi-channel micro-pipette. Sample preparation • 1. Add 100 μl of the diluent to the wells of the sample preparation plate (Plate A) where required. • 2. Dilute samples to be tested if the estimated IFN titer of the samples is greater than 100 IU/ml. • 3. Dilute samples appropriately in the sample preparation micro-plate (Plate A) Assay Procedure • 1. Rapidly thaw the 96-well PIL5 assay micro-plate (Plate B) on a flat surface with the cover uppermost. A water-bath set at 37° C. can be used for convenience. • 2. Dry protective cover with a paper hand towel, taking care to maintain the label uppermost. • 3. Carefully remove protective cover from the PIL5 assay micro-plate (Plate B) while maintaining the cover uppermost. • 4. Add 75 μl of each of the serial two-fold dilutions of the reference preparation to wells A1 and B1 through wells A6 and B6 of the PIL5 assay micro-plate (Plate B) using a multi-channel micro-pipette. • 5. Add 75 μl of each undiluted or appropriately diluted sample to the PIL assay micro-plate […]. • 6. Incubate the PIL5 assay micro-plate (Plate B) overnight at 37° C. in an atmosphere of 5% CO2 in air. A CO2 incubator can be used for convenience. • 7. […] Determine the luminescence of the samples using a micro-plate luminometer (LUMICOUNT, Packard). […] Plot standard curve from the mean of the luminescence readings for each dilution of the IFN reference preparation calibrated against the NIH international reference standard for HuIFN-α (G-023-901-527) using Microsoft EXCEL. • 2. […]
# PIL5 cells [2] = assay: Prevention of cell replication of PIL5 cells by anti-mitotic and pro-apoptotic agent; assay type: cell-based, human; conditions: at the doses tested
# Method: Studies on the effects of a variety of parameters, i.e., concentration of vinblastine, time of treatment with vinblastine, fetal bovine serum (FBS) concentration, glycerol concentration in the presence or absence of DMSO, SMSO concentration, cell density, on interferon sensitivity of frozen cells were conducted to determine optimal conditions. It may not be apparent from the results shown in FIG. 12 why vinblastine instead of 5-FU was chosen as the more preferred anti-mitotic and pro-apoptotic agent for treatment of PIL5 cells prior to freezing.
compound,measurement,setting,value
"O=c1[nH]cc(F)c(=O)[nH]1 [5-FU, 5-fluorouracil]",maintaining interferon sensitivity of frozen PIL5 cells,"PIL5 cells [1]; treatment prior to freezing, compared with vinblastine, FIG. 12",superior to vinblastine
same,preventing cell replication,PIL5 cells [2],not found to be sufficiently effective
"C[S+](C)[O-] [DMSO, dimethyl sulfoxide]",protection of cells frozen at −20° C. and effect on sensitivity to IFN,"PIL5 cells [1]; no special freezing or thawing techniques, FIG. 11",without adversely affecting their sensitivity to IFN
CC[C@]1(O)C[C@@H]2CN(CCc3c([nH]c4ccccc34)[C@@](C(=O)OC)(c3cc4c(cc3OC)N(C)[C@H]3[C@@](O)(C(=O)OC)[C@H](OC(C)=O)[C@]5(CC)C=CCN6CC[C@]43[C@@H]65)C2)C1 [vinblastine],IFN sensitivity of PIL5 cells after treatment and freezing,"PIL5 cells [1]; 100 μM vinblastine, 1.0 hour at 37° C., one month at −20° C., FIG. 11",retain full IFN sensitivity
